Results on 6 compounds are retold here after US20260115161A1, “2-HYDROXY-OCTADECENE-9-CIS-OATE FOR USE IN THE TREATMENT OF ONCOLOGICAL PATHOLOGIES AND NEUROPATHIC PAIN” (Laminar Pharmaceuticals S.A., priority 2023, published 2026).

One assay relates to SNB19 Glioblastoma. The assay can be described thus: cells. Particulars: Homo sapiens, SNB-19. The method, then:
(§1) To study the possible use of HOCOS in combinatorial therapies, human glioblastoma cells of lines U118, SNB19, SF268, human mesothelioma cells NCI-H2021 and pancreatic cancer cells BxPC-3 (pancreatic adenocarcinoma) and MIAPaCa-2 ([…]) were cultured in the absence or presence of different chemotherapeutic agents and combinations of HOCOS with said compounds.

The next assay concerns NCI-H2021 Mesothelioma. The assay can be described thus: Cell line assay, HOCOS combinations, NCI-H2021. It counts as cell-based, human. Particulars: NCI-H2021, compound alone. The method, then: as §1
The subject of a further assay is U118 Glioblastoma. The assay can be described thus: Cell line assay, HOCOS combinations, U118. It counts as cell-based. To be noted: Homo sapiens; U118, compound alone. The procedure: as §1
In the next assay the test system is A549 Lung. The assay can be described thus: Cell line assay, HOCOS combinations, A549. It counts as cell-based. Particulars: Homo sapiens; A549, compound alone.
Assay [1] deals with neuropathic pain due to spinal cord injury. Particulars: Cardenas et al., cited from earlier work.
A further assay has as its system BxPC-3 Pancreas. The assay is described as follows: Cell line assay, HOCOS combinations, BxPC-3. The assay is classed as cell-based. To be noted: Homo sapiens; BxPC-3, compound alone. The method, then: as §1

Take `Cc1ncc(C[n+]2csc(CCO)c2C)c(N)n1` [Thiamine]: the IC50 (commonly the concentration needed to halve the response being measured) in the assay with SNB19 Glioblastoma was determined as 15400 µM. Regarding `N.N.[Cl][Pt][Cl]` [Cisplatin], in the assay on NCI-H2021 Mesothelioma, the IC50 worked out at 16.4 µM. `CCc1c2c(nc3ccc(OC(=O)N4CCC(N5CCCCC5)CC4)cc13)-c1cc3c(c(=O)n1C2)COC(=O)[C@]3(O)CC` [Irinotecan]: the IC50 in the assay with U118 Glioblastoma worked out at 15 µM.

Regarding `C#Cc1cccc(Nc2ncnc3cc(OCCOC)c(OCCOC)cc23)c1` [Erlotinib], the IC50 in the assay on A549 Lung was found to be 16 µM.

Turning to `CC(C)C[C@H](CN)CC(=O)O` [pregabalin], the “percentage of patients responding, pregabalin group” value in assay [1] (33% in the placebo group) was 48%. In assay [1], the “mean reduction of neuropathic pain” value was 1.2 points on the VAS scale and the “patients responding to treatment” value is “approximately 50%”. Moreover, in assay [1] (VAS scale), the “difference between pregabalin and placebo groups” value is 0.82 points. `Nc1ccn([C@@H]2O[C@H](CO)[C@@H](O)C2(F)F)c(=O)n1` [Gemcitabine]: the IC50 in the assay with BxPC-3 Pancreas was found to be 0.0078 µM.
